pEC50: −log10 of the molar value.
System: recombinant NL-Rluc virus
Test: Inhibition of HIV replication (NL-RLuc virus luciferase assay in MT-2 cells)
Format: cell-based
Conditions: Human immunodeficiency virus 1, MT2, 120 h

Cc1cc(CNC(=O)c2cn3c(N4CCC(C)(C)CC4)c([C@H](OC(C)(C)C)C(=O)O)c(C)cc3n2)ccc1F [Example 1, (S)-2-(tert-Butoxy)-2-(5-(4,4-dimethylpiperidin-1-yl)-2-((4-fluoro-3-methylbenzyl)carbamoyl)-7-methylimidazo[1,2-a]pyridin-6-yl)acetic acid]
pEC50: 8.10

Cc1cc2nc(-c3nc(Cl)c(Cc4ccc(F)cc4)[nH]3)cn2c(N2CCC(C)(C)CC2)c1[C@H](OC(C)(C)C)C(=O)O [Example 6, (S)-2-(tert-Butoxy)-2-(2-(4-chloro-5-(4-fluorobenzyl)-1H-imidazol-2-yl)-5-(4,4-dimethylpiperidin-1-yl)-7-methylimidazo[1,2-a]pyridin-6)acetic acid]
pEC50: 7.89

Cc1cc2nc(-c3ncc(Cc4ccc(F)cc4)[nH]3)cn2c(N2CCC(C)(C)CC2)c1[C@H](OC(C)(C)C)C(=O)O [Example 7, (S)-2-(tert-Butoxy)-2-(5-(4,4-dimethylpiperidin-1-yl)-2-(5-(4-fluorobenzyl)-1H-imidazol-2-yl)-7-methylimidazo[1,2-a]pyridin-6-yl)acetic acid]
pEC50: 7.47

Cc1cc2nc(-c3nnc(Cc4ccccc4)o3)cn2c(N2CCC(C)(C)CC2)c1[C@H](OC(C)(C)C)C(=O)O [Example 5, (S)-2-(2-(5-Benzyl-1,3,4-oxadiazol-2-yl)-5-(4,4-dimethylpiperidin-1-yl)-7-methylimidazo[1,2-a]pyridin-6-yl)-2-(tert-butoxy)acetic acid]
pEC50: 8.10

C=CCOC1(C)CCN(c2c([C@H](OC(C)(C)C)C(=O)O)c(C)cc3nc(NS(=O)(=O)c4ccc(F)cc4)cn23)CC1 [Example 9, (S)-2-(5-(4-(Allyloxy)-4-methylpiperidin-1-yl)-2-(4-fluorophenylsulfonamido)-7-methylimidazo[1,2-a]pyridin-6-yl)-2-(tert-butoxy)acetic acid]
pEC50: 5.22

Cc1cc2nc(-c3ncc(Cc4ccc(F)cc4)s3)cn2c(N2CCC(C)(C)CC2)c1[C@H](OC(C)(C)C)C(=O)O [Example 3, (S)-2-(tert-Butoxy)-2-(5-(4,4-dimethylpiperidin-1-yl)-2-(5-(4-fluorobenzyl)thiazol-2-yl)-7-methylimidazo[1,2-a]pyridin-6-yl)acetic acid]
pEC50: 7.68

Cc1cc2nc(-c3ncc(Cc4ccc(F)cc4)o3)cn2c(N2CCC(C)(C)CC2)c1[C@H](OC(C)(C)C)C(=O)O [Example 2, (S)-2-(tert-Butoxy)-2-(5-(4,4-dimethylpiperidin-1-yl)-2-(5-(4-fluorobenzyl)oxazol-2-yl)-7-methylimidazo[1,2-a]pyridin-6-yl)acetic acid]
pEC50: 8.70

C=CCOC1(C)CCN(c2c([C@H](OC(C)(C)C)C(=O)O)c(C)cc3nc(NS(=O)(=O)Cc4ccc(F)cc4)cn23)CC1 [Example 8, (S)-2-(5-(4-(Allyloxy)-4-methylpiperidin-1-yl)-2((4-fluorophenyl)methylsulfonamido)-7-methylimidazo[1,2-a]pyridin-6-yl)-2-(tert-butoxy)acetic acid]
pEC50: 5.48

Cc1cc2nc(-c3nc(Cc4ccccc4)no3)cn2c(N2CCC(C)(C)CC2)c1[C@H](OC(C)(C)C)C(=O)O [Example 4, (S)-2-(2-(3-Benzyl-1,2,4-oxadiazol-5-yl)-5-(4,4-dimethylpiperidin-1yl)-7-methylimidazo[1,2-a]pyridin-6-yl)-2-(tert-butoxy)acetic acid]
pEC50: 8.52
